Measured values published in ChEMBL document CHEMBL4177594, “Design, synthesis, and evaluation of salicyladimine derivatives as multitarget-directed ligands against Alzheimer's disease” (Bioorg Med Chem, 2017).
Activity calls are given as the source filed them. The calls are words filed in the database; no cut-off is given here.

What was measured:
PC-12 [1] = experiment: Neuroprotective activity against H2O2-induced apoptosis in rat PC12 cells assessed as apoptotic cells at 50 uM after 24 hrs by Annexin V/FITC/propidium iodide staining-based flow cytometry (reference value: 52.3%); assay type: functional
[2] = Metal chelating activity assessed as compound-Fe2+ complex formation after 30 mins by UV-Vis spectrophotometry based Job's plot
[3] = Antioxidant activity assessed as ABTS radical scavenging activity at 25 uM after 6 mins; assay type: functional
PC-12 [4] = experiment: Neuroprotective activity against H2O2-induced apoptosis in rat PC12 cells assessed as apoptotic cells at 12.5 uM after 24 hrs by Annexin V/FITC/propidium iodide staining-based flow cytometry (reference value: 52.3%); assay type: functional
PC-12 [5] = experiment: Neuroprotective activity against H2O2-induced apoptosis in rat PC12 cells assessed as late apoptosis cells level at 25 uM after 24 hrs by Annexin V/FITC/propidium iodide staining-based flow cytometry (reference value: 1.9%); assay type: functional
PC-12 [6] = experiment: Neuroprotective activity against H2O2-induced apoptosis in rat PC12 cells assessed as late apoptosis cells level at 50 uM after 24 hrs by Annexin V/FITC/propidium iodide staining-based flow cytometry (reference value: 1.9%); assay type: functional
[7] = Antioxidant activity assessed as DPPH radical scavenging activity after 30 mins; assay type: functional
[8] = biological target: Amyloid-beta precursor protein (Homo sapiens) (UniProt P05067); experiment: Inhibition of self-induced aggregation of amyloid beta (1 to 42 residues) (unknown origin) at 25 uM incubated for 48 hrs by Thioflavin T fluorescence assay relative to control
Chain of Amyloid-beta precursor protein (Homo sapiens) (P05067 whole entry, the tested form may be a part): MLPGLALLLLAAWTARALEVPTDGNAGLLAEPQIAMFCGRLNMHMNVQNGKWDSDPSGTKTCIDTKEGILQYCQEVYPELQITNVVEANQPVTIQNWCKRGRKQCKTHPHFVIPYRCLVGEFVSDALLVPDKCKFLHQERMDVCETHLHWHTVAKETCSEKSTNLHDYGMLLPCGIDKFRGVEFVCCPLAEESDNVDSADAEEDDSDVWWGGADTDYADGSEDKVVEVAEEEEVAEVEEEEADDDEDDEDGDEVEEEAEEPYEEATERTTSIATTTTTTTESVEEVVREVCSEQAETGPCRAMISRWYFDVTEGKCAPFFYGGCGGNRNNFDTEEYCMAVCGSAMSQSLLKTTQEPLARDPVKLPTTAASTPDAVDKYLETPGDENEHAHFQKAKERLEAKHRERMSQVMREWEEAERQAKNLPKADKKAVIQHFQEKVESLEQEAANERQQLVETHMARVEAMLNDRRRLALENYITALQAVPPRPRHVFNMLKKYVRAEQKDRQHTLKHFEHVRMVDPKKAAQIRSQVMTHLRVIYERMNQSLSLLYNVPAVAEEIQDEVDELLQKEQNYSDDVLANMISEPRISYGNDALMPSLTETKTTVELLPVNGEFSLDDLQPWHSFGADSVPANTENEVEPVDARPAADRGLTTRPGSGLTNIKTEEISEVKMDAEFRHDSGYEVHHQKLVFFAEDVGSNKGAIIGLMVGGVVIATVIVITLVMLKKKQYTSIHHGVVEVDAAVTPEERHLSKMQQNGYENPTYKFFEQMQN

PC-12 [9] = experiment: Neuroprotective activity against H2O2-induced apoptosis in rat PC12 cells assessed as apoptotic cells at 25 uM after 24 hrs by Annexin V/FITC/propidium iodide staining-based flow cytometry (reference value: 52.3%); assay type: functional
PC-12 [10] = experiment: Cytotoxicity against rat PC12 cells at 25 uM after 24 hrs by MTT assay; assay type: cell-based; conditions: pc-12, 24 h
PC-12 [11] = experiment: Neuroprotective activity against H2O2-induced apoptosis in rat PC12 cells assessed as late apoptosis cells level at 6.25 uM after 24 hrs by Annexin V/FITC/propidium iodide staining-based flow cytometry (reference value: 1.9%); assay type: functional
PC-12 [12] = experiment: Neuroprotective activity against H2O2-induced apoptosis in rat PC12 cells assessed as early apoptosis cells level at 12.5 uM after 24 hrs by Annexin V/FITC/propidium iodide staining-based flow cytometry (reference value: 1.8%); assay type: functional
PC-12 [13] = experiment: Neuroprotective activity against H2O2-induced cytotoxicity in rat PC12 cells assessed as increase in cell viability at 6.25 to 25 uM preincubated for 24 hrs followed by H2O2 addition and measured after 24 hrs by MTT assay; assay type: functional, cell-based
PC-12 [14] = experiment: Antioxidant activity against H2O2-induced oxidative stress in rat PC12 cells assessed as reduction in intracellular ROS levels after 48 hrs by DCFH-DA staining based flow cytometry; assay type: functional, cell-based
PC-12 [15] = experiment: Neuroprotective activity against H2O2-induced apoptosis in rat PC12 cells assessed as necrosis cells level at 50 uM after 24 hrs by Annexin V/FITC/propidium iodide staining-based flow cytometry (reference value: 0.1%); assay type: functional
Homo sapiens = species on record: Homo sapiens; experiment: Selectivity index, ratio of IC50 for human MAO-A to IC50 for human MAO-B
[16] = Metal chelating activity assessed as compound-Cu2+ complex formation after 30 mins by UV-Vis spectrophotometry based Job's plot
PC-12 [17] = experiment: Neuroprotective activity against H2O2-induced apoptosis in rat PC12 cells assessed as early apoptosis cells level at 6.25 uM after 24 hrs by Annexin V/FITC/propidium iodide staining-based flow cytometry (reference value: 1.8%); assay type: functional
PC-12 [18] = experiment: Neuroprotective activity against H2O2-induced apoptosis in rat PC12 cells assessed as viable cells level at 6.25 uM after 24 hrs by Annexin V/FITC/propidium iodide staining-based flow cytometry (reference value: 96.2%); assay type: functional
PC-12 [19] = experiment: Neuroprotective activity against H2O2-induced apoptosis in rat PC12 cells assessed as early apoptosis cells level at 25 uM after 24 hrs by Annexin V/FITC/propidium iodide staining-based flow cytometry (reference value: 1.8%); assay type: functional
PC-12 [20] = experiment: Neuroprotective activity against H2O2-induced apoptosis in rat PC12 cells assessed as late apoptosis cells level at 12.5 uM after 24 hrs by Annexin V/FITC/propidium iodide staining-based flow cytometry (reference value: 1.9%); assay type: functional
PC-12 [21] = experiment: Neuroprotective activity against H2O2-induced apoptosis in rat PC12 cells assessed as viable cells level at 25 uM after 24 hrs by Annexin V/FITC/propidium iodide staining-based flow cytometry (reference value: 96.2%); assay type: functional
PC-12 [22] = experiment: Neuroprotective activity against H2O2-induced apoptosis in rat PC12 cells assessed as necrosis cells level at 6.25 uM after 24 hrs by Annexin V/FITC/propidium iodide staining-based flow cytometry (reference value: 0.1%); assay type: functional
[23] = biological target: T1, Amine oxidase [flavin-containing] B (Homo sapiens, UniProt P27338); experiment: Inhibition of human MAO-B using p-tyramine as substrate preincubated for 15 mins followed by substrate addition measured after 20 mins by fluorescence-based Amplex Red MAO assay
T1 sequence (P27338 whole entry): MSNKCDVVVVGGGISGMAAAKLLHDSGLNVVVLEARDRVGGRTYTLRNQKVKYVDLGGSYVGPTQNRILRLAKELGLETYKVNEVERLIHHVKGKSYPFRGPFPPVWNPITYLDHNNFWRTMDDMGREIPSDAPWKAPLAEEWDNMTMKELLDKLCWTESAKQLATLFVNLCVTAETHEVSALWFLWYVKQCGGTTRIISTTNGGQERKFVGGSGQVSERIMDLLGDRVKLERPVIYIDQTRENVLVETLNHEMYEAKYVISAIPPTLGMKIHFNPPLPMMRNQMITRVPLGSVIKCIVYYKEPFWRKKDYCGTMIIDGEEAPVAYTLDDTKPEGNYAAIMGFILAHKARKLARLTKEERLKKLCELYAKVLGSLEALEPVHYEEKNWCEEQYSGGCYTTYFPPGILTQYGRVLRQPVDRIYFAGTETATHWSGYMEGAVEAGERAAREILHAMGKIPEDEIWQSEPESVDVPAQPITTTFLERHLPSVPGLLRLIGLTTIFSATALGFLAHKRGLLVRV

PC-12 [24] = experiment: Neuroprotective activity against H2O2-induced apoptosis in rat PC12 cells assessed as early apoptosis cells level at 50 uM after 24 hrs by Annexin V/FITC/propidium iodide staining-based flow cytometry (reference value: 1.8%); assay type: functional
[25] = Metal chelating activity assessed as compound-Fe3+ complex formation after 30 mins by UV-Vis spectrophotometry based Job's plot
PC-12 [26] = experiment: Neuroprotective activity against H2O2-induced apoptosis in rat PC12 cells assessed as viable cells level at 12.5 uM after 24 hrs by Annexin V/FITC/propidium iodide staining-based flow cytometry (reference value: 96.2%); assay type: functional
in vitro = experiment: in vitro; design: dose or concentration left out as unconfirmed; conditions: PAMPA
Description: Permeability of the compound at 100 mg/ml after 16 hrs by BBB-PAMPA method

PC-12 [27] = experiment: Neuroprotective activity against H2O2-induced apoptosis in rat PC12 cells assessed as necrosis cells level at 12.5 uM after 24 hrs by Annexin V/FITC/propidium iodide staining-based flow cytometry (reference value: 0.1%); assay type: functional

Oc1ccc(/C=N/c2ccc(OCc3ccccc3)cc2)c(O)c1O
Activity (PC-12 [1]): 6.1% | log K [2]: 6.3 | Activity (umolequiv/umol) [3]: 0.67 | Activity (PC-12 [4]): 29.9% | Activity (PC-12 [5]): 2.7% | Activity (PC-12 [6]): 2.3% | IC50 [7]: 43.4 µM | inhibition [8]: 91.3% | Activity (PC-12 [9]): 11.2% | Activity (PC-12 [10]): Non-Toxic | Activity (PC-12 [11]): 11.9% | Activity (PC-12 [12]): 25.7% | Activity (PC-12 [13]): Active | Activity (PC-12 [14]): Dose-dependent effect | Activity (PC-12 [15]): 3% | Ratio IC50 (Homo sapiens): > 57.8 | log K [16]: 8.01 | Activity (PC-12 [17]): 26.7% | Activity (PC-12 [18]): 60.6% | Activity (PC-12 [19]): 8.5% | Activity (PC-12 [20]): 4.2% | Activity (PC-12 [21]): 87.7% | Activity (PC-12 [22]): 0.8% | IC50 [23]: 1.73 µM | Activity (PC-12 [24]): 3.7% | log K [25]: 6.19 | Activity (PC-12 [26]): 69.8% | Papp at 16 h (in vitro): 5.75 ×10⁻⁶ cm/s | Activity (PC-12 [27]): 0.4%
